Source: PubChem BioAssay (NCI)
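The compound was tested at five concentrations on cells cultured in 96-well plates, with a 48-hour exposure period. GI50 marks 50% less growth. TGI: total growth inhibition.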

Columns and labels:
Assay in all cases: inhibition of tumour cell growth, NCI panel, 48 h
[1] = system: COLO 205 colon
[2] = system: MALME-3M melanoma
[3] = system: HCC-2998 colon
[4] = system: UACC-257 melanoma
[5] = system: HCT-116 colon
[6] = system: EKVX NSCLC
[7] = system: ACHN renal
[8] = system: OVCAR-4 ovarian
[9] = system: OVCAR-8 ovarian
[10] = system: SNB-75 CNS
[11] = system: A549 NSCLC
[12] = system: MDA-MB-231 breast
[13] = system: HOP-92 NSCLC
[14] = system: NCI-H460 lung
[15] = system: SK-OV-3 ovarian
[16] = system: DU-145 prostate
[17] = system: SF-295 CNS
[18] = system: HS 578T breast
[19] = system: HOP-62 NSCLC
[20] = system: RPMI-8226 leukemia
[21] = system: NCI-H23 lung
[22] = system: SK-MEL-5 melanoma
[23] = system: SR leukemia
[24] = system: HL-60(TB) leukemia
[25] = system: UACC-62 melanoma
[26] = system: UO-31 renal
[27] = system: SN12C renal
[28] = system: MDA-MB-435
[29] = system: MOLT-4 leukemia
[30] = system: HCT-15 colon
[31] = system: A498 renal
[32] = system: CCRF-CEM leukemia
[33] = system: SNB-19 CNS
[34] = system: NCI/ADR-RES ovarian
[35] = system: NCI-H226 lung
[36] = system: K-562 leukemia
[37] = system: SK-MEL-28 melanoma
[38] = system: HT29 colon
[39] = system: U251 CNS
[40] = system: SF-268 CNS
[41] = system: OVCAR-5 ovarian
[42] = system: M14 melanoma
[43] = system: TK-10 renal
[44] = system: KM12 colon
[45] = system: SF-539 CNS
[46] = system: RXF 393 renal
[47] = system: MCF7 breast
[48] = system: SW-620 colon
[49] = system: T-47D breast
[50] = system: IGROV1 ovarian
[51] = system: 786-0 renal
[52] = system: SK-MEL-2 melanoma
[53] = system: OVCAR-3 ovarian
[54] = system: PC-3 prostate
[55] = system: LOX IMVI melanoma
[56] = system: NCI-H522 lung
[57] = system: CAKI-1 renal
[58] = system: BT-549 breast

Structure (SMILES): N=C(N)N1CCC(N2CCOCC2)CC1
- TGI [1]: > 100 µM
- TGI [2]: > 100 µM
- TGI [3]: > 100 µM
- TGI [4]: > 100 µM
- TGI [5]: > 100 µM
- TGI [6]: > 100 µM
- TGI [7]: > 100 µM
- TGI [8]: > 100 µM
- TGI [9]: > 100 µM
- TGI [10]: > 100 µM
- TGI [11]: > 100 µM
- TGI [12]: > 100 µM
- TGI [13]: > 100 µM
- TGI [14]: > 100 µM
- TGI [15]: > 100 µM
- TGI [16]: > 100 µM
- TGI [17]: > 100 µM
- TGI [18]: > 100 µM
- TGI [19]: > 100 µM
- TGI [20]: > 100 µM
- TGI [21]: > 100 µM
- TGI [22]: > 100 µM
- TGI [23]: > 100 µM
- TGI [24]: > 100 µM
- TGI [25]: > 100 µM
- TGI [26]: > 100 µM
- TGI [27]: > 100 µM
- TGI [28]: > 100 µM
- TGI [29]: > 100 µM
- TGI [30]: > 100 µM
- TGI [31]: > 100 µM
- TGI [32]: > 100 µM
- TGI [33]: > 100 µM
- TGI [34]: > 100 µM
- TGI [35]: > 100 µM
- TGI [36]: > 100 µM
- TGI [37]: > 100 µM
- TGI [38]: > 100 µM
- TGI [39]: > 100 µM
- TGI [40]: > 100 µM
- TGI [41]: > 100 µM
- TGI [42]: > 100 µM
- TGI [43]: > 100 µM
- TGI [44]: > 100 µM
- TGI [45]: > 100 µM
- TGI [46]: > 100 µM
- TGI [47]: > 100 µM
- TGI [48]: > 100 µM
- TGI [49]: > 100 µM
- TGI [50]: > 100 µM
- TGI [51]: > 100 µM

Structure (SMILES): COc1cc2c3c(n(CCCN)c(=O)c2cc1OC)-c1cc2c(cc1/C3=C\CCN)OCO2
- GI50 [52]: 6.57 µM
- TGI [52]: 14.6 µM
- GI50 [1]: 4.34 µM
- TGI [1]: 33.5 µM
- GI50 [2]: 1.1 µM
- TGI [2]: 4.26 µM
- GI50 [3]: 0.382 µM
- TGI [3]: 1.77 µM
- GI50 [4]: 8.29 µM
- TGI [4]: 19.2 µM
- GI50 [5]: 0.989 µM
- GI50 [6]: 5.07 µM
- TGI [6]: 15.9 µM
- GI50 [7]: 5.81 µM
- TGI [7]: 45 µM
- GI50 [9]: 1.99 µM
- TGI [9]: 13.1 µM
- GI50 [10]: 1.85 µM
- TGI [10]: 8.02 µM
- GI50 [11]: 3.19 µM
- TGI [11]: > 30.3 µM
- GI50 [12]: 2.5 µM
- TGI [12]: 11.2 µM
- GI50 [13]: 3.69 µM
- TGI [13]: > 49.4 µM
- GI50 [14]: 1.06 µM
- TGI [14]: 7.53 µM
- TGI [53]: > 23.5 µM
- GI50 [54]: 4.43 µM
- TGI [54]: 17.8 µM
- GI50 [15]: 6 µM
- TGI [15]: 44.2 µM
- GI50 [16]: 2.52 µM
- TGI [16]: 12.7 µM
- GI50 [17]: 3.33 µM
- GI50 [18]: 11 µM
- TGI [18]: 55.7 µM
- GI50 [19]: 5.95 µM
- TGI [19]: 36.7 µM
- GI50 [20]: 2.01 µM
- TGI [20]: > 40.3 µM
- GI50 [21]: 5.35 µM
- TGI [21]: 24.1 µM
- GI50 [22]: 4.55 µM
- TGI [22]: 11.8 µM
- GI50 [23]: 0.166 µM
- TGI [23]: > 100 µM
- GI50 [24]: 9.09 µM
- TGI [24]: > 73.9 µM
- GI50 [25]: 1.75 µM
- TGI [25]: 4.98 µM
- GI50 [55]: 1.7 µM
- GI50 [26]: 13.5 µM
- TGI [26]: 45.7 µM
- GI50 [27]: 0.0627 µM
- TGI [27]: 3.81 µM
- TGI [28]: > 36 µM
- GI50 [29]: 0.0601 µM
- GI50 [30]: 27 µM
- TGI [30]: > 100 µM
- GI50 [31]: 35.9 µM
- TGI [31]: 97.2 µM
- GI50 [32]: 0.196 µM
- TGI [32]: 36.5 µM
- GI50 [33]: 3.46 µM
- TGI [33]: > 30.9 µM
- GI50 [34]: > 96.1 µM
- TGI [34]: > 100 µM
- GI50 [35]: 1.45 µM
- TGI [35]: 5.9 µM
- GI50 [36]: 2.17 µM
- TGI [36]: > 40.4 µM
- GI50 [56]: 0.2 µM
- TGI [56]: 3.08 µM
- GI50 [37]: 2.15 µM
- TGI [37]: 9.67 µM
- GI50 [38]: 0.373 µM
- TGI [38]: 10.6 µM
- GI50 [39]: 1.33 µM
- TGI [39]: 11 µM
- GI50 [40]: 0.993 µM
- TGI [40]: 6.89 µM
- GI50 [41]: 4.29 µM
- TGI [41]: > 26.1 µM
- GI50 [57]: 23.6 µM
- TGI [57]: > 100 µM
- GI50 [42]: 12.3 µM
- TGI [42]: 35.7 µM
- GI50 [43]: 4.92 µM
- TGI [43]: > 28 µM
- GI50 [44]: 2.6 µM
- TGI [44]: > 21.8 µM
- GI50 [45]: 1.62 µM
- TGI [45]: 4.41 µM
- GI50 [46]: 4.41 µM
- TGI [46]: 14.8 µM
- GI50 [47]: 0.692 µM
- GI50 [48]: 3.56 µM
- TGI [48]: > 66.2 µM
- GI50 [49]: 19.4 µM
- TGI [49]: > 100 µM
- GI50 [50]: 3.74 µM
- TGI [50]: > 26.8 µM
- GI50 [51]: 2.05 µM
- TGI [51]: 9.34 µM

Structure (SMILES): Cc1sc2nc(-c3ccc(Cl)c([N+](=O)[O-])c3)c(/C=N/N=C(N)N)n2c1C
- TGI [1]: 1.31 µM
- TGI [2]: 3.68 µM
- TGI [3]: 2.64 µM
- TGI [6]: 3.14 µM
- TGI [7]: 2.77 µM
- TGI [9]: 2.03 µM
- TGI [53]: 3.5 µM
- TGI [15]: 3.13 µM
- TGI [17]: 3.4 µM
- TGI [19]: 1.7 µM
- TGI [55]: 2.44 µM
- TGI [26]: 3.07 µM
- TGI [28]: 3.11 µM
- TGI [30]: 2.65 µM
- TGI [31]: 3.06 µM
- TGI [34]: 6.59 µM
- TGI [56]: 3.34 µM
- TGI [37]: 2.18 µM
- TGI [38]: 2.63 µM
- TGI [41]: 2.93 µM
- TGI [42]: 3.29 µM
- TGI [43]: 3.2 µM
- TGI [44]: 1.87 µM
- TGI [45]: 2.99 µM
- TGI [46]: 3.13 µM
- TGI [49]: 4.76 µM
- TGI [50]: 2.44 µM
- TGI [58]: 3.07 µM
- TGI [51]: 1.92 µM

Structure (SMILES): CN(C)c1ccc(/C=C2\C[C@H]3[C@@H]4CCc5cc(OCCN6CCCC6)ccc5[C@H]4CC[C@]3(C)C2=O)cc1
- TGI [52]: 3.93 µM
- TGI [1]: 2.85 µM
- TGI [4]: 5.35 µM
- TGI [5]: 2.45 µM
- TGI [6]: 6.32 µM
- TGI [7]: 3.11 µM
- TGI [21]: > 100 µM
- TGI [22]: 3.22 µM
- TGI [25]: 4.24 µM
- TGI [27]: 2.97 µM
- TGI [30]: 2.66 µM
- TGI [33]: 4.09 µM
- TGI [38]: 0.814 µM
- TGI [41]: 8.62 µM
- TGI [58]: > 100 µM
- TGI [51]: 2.6 µM
